Where no end group is shown, it is not given here.

Here are results for 5 compounds from patent publication US20100204114A1, “USE OF A GALANIN PEPTIDE AS A THERAPEUTIC AGENT” (priority 2007, published 2010).

Assay [1] relates to spleen cells of Ovalbumin-immunized Balb/c mice. Kind of assay: Th1/Th2 cytokine profiling assay (Ovalbumin-restimulated spleen cells, CBA kit). Type of assay: cell-based, mouse. To be noted: 10 micrograms per ml; Ovalbumin restimulation; 72 hours. An excerpt: The Balb/c mice (originated in 1923, it is a popular strain and is used in many different research disciplines. […] On day 50, spleens of the mice were harvested (3 weeks after last boost with Ovalbumin). […] This kit can be used to measure Interleukin-2 (IL-2), Interleukin-4 (IL-4), Interleukin-5 (IL-5), Interferon-γ (IFN-γ), and Tumor Necrosis Factor-α (TNF-α) protein levels in a single sample. The kit performance has been optimized for analysis of physiologically relevant concentrations ([…] levels) of specific cytokine proteins in tissue culture supernatants and serum samples.

In assay [2] the test system is Primary Human endothelial cells (HUVEC). Nature of the assay: Endothelial cell migration assay. Type of assay: cell-based. As to conditions: 10 micrograms per ml, 22 hours.
For assay [3], the system named is hepatitis B virus (HBV) ayw strain in HepG2-2.2.15 cells. Nature of the assay: HBV experimental assay system, secreted HBV DNA by TaqMan PCR. In kind it is cell-based. To be noted: 10 micrograms per ml, six days. The text has this: HepG2-2.2.15 is a stable cell line containing the hepatitis B virus (HBV) ayw strain genome (ATCC Cat. No. CRL-11997). Antiviral compounds blocking any late step of viral replication such as transcription, translation, pregenome encapsidation, reverse transcription, particle assembly and release can be identified and characterized using this cell line. In this assay, an active compound will reduce the production of secreted HBV from cells, measured by utilizing real time quantitative PCR (TaqMan) assay to directly and accurately measure HBV DNA copies.
HepG2-2.2.15 cells were plated in 96-well microtiter plates. After 16-24 hours the confluent monolayer of HepG2-2.2.15 cells was washed and the medium was replaced with complete medium containing test peptides—10 micrograms per ml—in duplicate. […] Six days following the initial administration of the peptides, the cell culture supernatants was collected, treated with pronase and DNAse and then used in a real-time quantitative TaqMan PCR assay. The PCR-amplified HBV DNA was detected in real-time by monitoring increases in fluorescence signals that result from the exonucleolytic degradation of a quenched fluorescence probe molecule that hybridizes to the amplified HBV DNA. […] Antiviral activity was calculated from the reduction in HBV DNA levels (% virus control). […]

For assay [4], the system named is HUVEC. Kind of assay: Endothelial tube formation assay. In kind it is cell-based, human. To be noted: 10 micrograms per ml, 20 hours.
Assay [5] concerns HCMV strain AD169. Kind of assay: HCMV plaque formation assay in MRC-5 cells. As to conditions: for inhibition of HCMV plaque formation as compared to the virus control: 10 micrograms per ml, 7-10 days.
In assay [6] the test system is HIV-1IIIB. Nature of the assay: HIV-1 antiviral assay in CEM-SS cells (MTS readout). In kind it is cell-based.

Turning to “Ile-Tyr-Leu-Gly-Gly-Pro-Phe-Ser-Pro-Asn-Val-Leu-OH (IYLGGPFSPNVL-OH) [peptide 2]”, in assay [1], the “IFNγ spleen cells; TH1 response (% of control)” value is given as 102.8 % of control, the “IL-2 spleen cells (% of control)” value is on record as 150.7 % of control, the “IL-4 spleen cells; TH2 response (% of control)” value is listed as 182.0 % of control and the “IL-5 spleen cells; TH2 response (% of control)” value is reported as 73.5 % of control. Further, the “TNF-a spleen cells; TH1 response (% of control)” value in assay [1] was 114.1 % of control. The “inhibition of the migration of human endothelial cells” value in assay [2] is “did not inhibit”. Further, in assay [3], the “inhibition of HBV replication as compared to the virus control infection” value was 34.1%. Moreover, the “inhibition of the tube formation of endothelial cells” value in assay [4] stood at 29%. Moreover, in assay [5], the “inhibition of HCMV plaque formation as compared to the virus control” value is “did not inhibit”.
As to `Cc1cn([C@H]2C[C@H](N=[N+]=[N-])[C@@H](CO)O2)c(=O)[nH]c1=O` [AZT], the “antiviral activity of positive control compounds (HIV-1)” value in assay [6] is “expected levels of antiviral activity”.
`Nc1nc(O)c2ncn(COC(CO)CO)c2n1` [Ganciclovir, reference compound]: the “antiviral activity of positive control compound (HCMV)” value in assay [5] (positive control) was “expected levels of antiviral activity”.
Take `CC(C)(C)NC(=O)[C@@H]1CN(Cc2cccnc2)CCN1C[C@@H](O)C[C@@H](Cc1ccccc1)C(=O)N[C@H]1c2ccccc2C[C@H]1O` [indinavir]: the “antiviral activity of positive control compounds (HIV-1)” value in assay [6] was “expected levels of antiviral activity”.
On to “Gly-Trp-Thr-Leu-Asn-Ser-Ala-Gly-Tyr-Leu-Leu-Gly-Pro-His-Ala-Val-Gly-Asn-His-Arg-Ser-Phe-Ser-Asp-Lys-Asn-Gly-Leu-Thr-Ser-OH [peptide 1]”, for which, in assay [1], the “IFNγ spleen cells; TH1 response (% of control)” value was 144.1 % of control, the “IL-2 spleen cells (% of control)” value is 149.6 % of control, the “IL-4 spleen cells; TH2 response (% of control)” value is listed as 115.3 % of control and the “IL-5 spleen cells; TH2 response (% of control)” value was 78.8 % of control. For the same compound, in assay [1], the “TNF-a spleen cells; TH1 response (% of control)” value is 118.8 % of control. The “inhibition of the migration of human endothelial cells” value in assay [2] was 29%. In addition, the “inhibition of HBV replication as compared to the virus control infection” value in assay [3] is “no effect”. Also, the “inhibition of the tube formation of endothelial cells” value in assay [4] was found to be 11%. In assay [5], the “inhibition of HCMV plaque formation as compared to the virus control” value is recorded as “did not inhibit”.
